Data set [1] concerns the target human growth hormone secretagogue receptor (hGHS-R1a) (Homo sapiens, UniProt Q92847). The experiment in a line: Competitive radioligand binding assay (ghrelin receptor), standard method A. The following applies: binding activity at the human ghrelin receptor, standard method A. An excerpt:
A competitive binding assay at the human growth hormone secretagogue receptor (hGHS-R1a) can be carried out analogously to assays described in the literature. (Bednarek, M. A.; et al. J. Med. Chem. 2000, 43, 4370-4376; Palucki, B. L.; et al. Bioorg. Med. Chem. Lett. […], 11, 1955-1957.) See also U.S. patent application Ser. Nos. 11/149,512 and 11/149,731. Binding activity at the gherlin receptor for representative compounds of the present invention is shown in the Examples below.

The nature of data set [2]: Pharmacokinetic analysis (oral bioavailability, elimination half-life) in the rat. The class given is in vivo. The following applies: oral administration, 8 mg/kg dose, HPLC-MS. An excerpt:
D. Pharmacokinetic Analysis of Representative Compounds of the Invention
The pharmacokinetic behavior of compound of the invention can be ascertained by methods well known to those skilled in the art. (Wilkinson, G. R. “Pharmacokinetics: The Dynamics of Drug Absorption, Distribution, and Elimination” in Goodman & Gilman's The Pharmacological Basis of Therapeutics, Tenth Edition, Hardman, J. G.; Limbird, L. E., Eds., McGraw Hill, Columbus, Ohio, 2001, Chapter 1.) The following method was used to investigate the pharmacokinetic parameters (elimination half-life, total plasma clearance, etc.) for intravenous, subcutaneous and oral administration of compounds of the present invention. See also U.S. patent application Ser. No. 11/149,512 and Ser. No. 11/149,731 and Intl. Pat. Appl. No. PCT/US2007/017905.
The table below presents oral bioavailability and elimination half-life data in the rat for representative compounds of the present invention. The parameters were determined by HPLC-MS after oral administration of an 8 mg/kg dose of the compound, except for compound 822 where a 2 mg/kg dose was used.

The next data set concerns fasted rats. The experiment in a line: Gastric emptying in fasted rat model, standard method E. The class given is in vivo. The following applies: average where repeated. As to the method:
E. Gastric Emptying in Fasted Rat Model
To examine the effects of compounds of the invention in a model for gastroparesis, compounds were evaluated for possible effects on gastric emptying in fasted rats. This model is used to determine the potential of compounds of the invention to promote motility in fasted rats.
• 1. Overnight-fasted rats (male, Wistar, 200 g, n=5/group) were given a meal (2 mL) of methylcellulose (2%) by intragastric gavage. The meal was labeled with phenol red (0.05%). • 2. Test articles (dosed at various concentrations, typically 1, 3, 10, 30 mg/kg), vehicle and positive control (metoclopramide, a 5-HT ligand and prokinetic agent currently prescribed for the treatment of GI disorders, including gastroparesis) were administered by oral gavage immediately after the meal (time=0). • 3. […] Total phenol red remaining in the stomach was quantified by a colorimetric method at 560 nm. • 5. A 30% or more increase in gastric emptying (as compared to the vehicle control) was considered significant. • 6. One-way ANOVA, Dunnet's post-hoc statistical test was applied Results
The effects of representative compounds of the invention in the rat gastric emptying model described in standard method E are provided in the following table. In cases where an experiment was conducted multiple times, the average of the individual results is presented.

human growth hormone secretagogue receptor (hGHS-R1a), sequence (Q92847 whole entry): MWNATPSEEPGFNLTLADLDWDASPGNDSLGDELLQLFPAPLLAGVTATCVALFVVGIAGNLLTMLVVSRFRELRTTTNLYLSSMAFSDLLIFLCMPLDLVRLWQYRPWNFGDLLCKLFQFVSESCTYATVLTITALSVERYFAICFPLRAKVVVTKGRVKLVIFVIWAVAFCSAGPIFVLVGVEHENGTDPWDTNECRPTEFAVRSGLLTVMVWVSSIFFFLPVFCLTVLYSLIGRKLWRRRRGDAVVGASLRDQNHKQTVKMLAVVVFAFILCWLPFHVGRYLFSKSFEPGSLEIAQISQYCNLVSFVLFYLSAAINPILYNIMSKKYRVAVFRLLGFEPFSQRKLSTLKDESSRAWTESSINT

Take `CC1CNC(C2CC2)C(=O)N(C)C(C)C(=O)NC(CC2CCCCC2)C(=O)NCCCC2CCCCC2O1` (mixture of isomers) [Compound 831]: in data set [1], the Ki (in general, the dissociation constant of the complex between target and ligand, obtained from inhibition or displacement) was not above 1 nM. Further, in data set [2], the “Elimination Half-life (t1/2, rat, min)” value is 120 min and the “Oral Bioavailability (rat, % F)” value was 15 % F. In addition, in the data set with fasted rats (dose 3 mg/kg), the “Percent Increase in Gastric Emptying After Oral Administration” value (“Percent Increase” below) is 32%. In data set [1], `CC(C)C[C@H]1NC(=O)[C@@H](C)N(C)C(=O)[C@H](C2CC2)NCCOc2c(F)cccc2CCCNC1=O` [Compound 813] gave a Ki not above 10 nM. In data set [2], the “Elimination Half-life (t1/2, rat, min)” value came to 31 min and the “Oral Bioavailability (rat, % F)” value turned out to be 4 % F. Also, the “Percent Increase” value in the data set with fasted rats (dose 3 mg/kg) is listed as 11%. `C[C@@H]1C(=O)N[C@H](Cc2ccc(O)cc2)C(=O)NCCCc2ccc(F)c(F)c2OCCN[C@@H](C2CC2)C(=O)N1C` [Compound 818] yielded an inhibition constant (Ki) in data set [1] not above 10 nM. In the data set with fasted rats (dose 3 mg/kg), the “Percent Increase” value is 11%.

Take `C[C@@H]1CN[C@@H](C2CC2)C(=O)N(C)[C@H](C)C(=O)N[C@H](Cc2ccc(F)cc2)C(=O)NCCCc2ccc(F)cc2O1` [Compound 854]: in data set [1], the Ki was not above 100 nM. In data set [2], the “Elimination Half-life (t1/2, rat, min)” value was determined as 223 min and the “Oral Bioavailability (rat, % F)” value came out at 22 % F. The matching figures for `C[C@@H]1CN[C@@H](C2CC2)C(=O)N(C)[C@H](C)C(=O)N[C@H](Cc2ccc(Cl)cc2)C(=O)NCCCc2ccccc2O1` [Compound 862]: not above 10 nM, 77 min and 22 % F. The matching figures for `C[C@@H]1CN[C@@H](C2CC2)C(=O)N(C)[C@H](C)C(=O)N[C@H](Cc2ccc(F)cc2)C(=O)NCCCc2cccc(F)c2O1` [Compound 935]: not above 100 nM, 42 min and 11 % F. Taken in the same sequence, the figures for `CC(C)C[C@H]1NC(=O)[C@@H](C)N(C)C(=O)[C@H](C2CC2)NC[C@@H](C)Oc2c(F)cccc2CCCNC1=O` [Compound 979] were not above 100 nM, 34 min and 11 % F.

In data set [1], `C[C@@H]1CN[C@@H](C2CC2)C(=O)N(C)[C@H](C)C(=O)N[C@H](Cc2ccc(O)cc2)C(=O)NCCCc2ccccc2O1` [Compound 989] had a Ki not above 100 nM. Besides, in data set [2], the “Elimination Half-life (t1/2, rat, min)” value stood at 138 min and the “Oral Bioavailability (rat, % F)” value is 7 % F. As to `CC(C)C[C@H]1NC(=O)[C@@H](C)N(C)C(=O)[C@H](C2CC2)NC[C@@H](C)Oc2cccnc2CCCNC1=O` [Compound 999], in data set [2], the “Elimination Half-life (t1/2, rat, min)” value was determined as 122 min and the “Oral Bioavailability (rat, % F)” value is 9 % F. `C[C@@H]1CN[C@@H](C2CC2)C(=O)N(C)[C@H](C)C(=O)N[C@H](Cc2ccc(F)cc2)C(=O)N[C@@H](C)CCc2ccccc2O1` [Compound 1011] gave a Ki in data set [1] not above 10 nM. Also, in data set [2], the “Elimination Half-life (t1/2, rat, min)” value came out at 268 min and the “Oral Bioavailability (rat, % F)” value is recorded as 22 % F. Molecule `C[C@@H]1CN[C@@H](C2CC2)C(=O)N(C)[C@H](C)C(=O)N[C@H](Cc2ccc(F)cc2)C(=O)NCCCc2ncccc2O1` [Compound 1027] yielded a Ki in data set [1] not above 100 nM. Also, in data set [2], the “Elimination Half-life (t1/2, rat, min)” value stood at 46 min and the “Oral Bioavailability (rat, % F)” value was found to be 6 % F. The matching figures for `C[C@@H]1CN[C@@H](C2CC2)C(=O)N(C)[C@H](C)C(=O)N[C@H](Cc2ccc(O)cc2)C(=O)N(C)CCCc2ccccc2O1` [Compound 1069]: not above 100 nM, 128 min and 32 % F. `C[C@@H]1CN[C@@H](C2CC2)C(=O)N(C)[C@H](C)C(=O)N[C@H](Cc2cccc(O)c2)C(=O)NCCCc2ncccc2O1` [Compound 1079] yielded a Ki in data set [1] not above 100 nM. The same measure, in the same setting: with `C[C@@H]1C(=O)N[C@H]([C@@H](C)c2ccc(O)cc2)C(=O)NCCCc2ncccc2OCCN[C@@H](C2CC2)C(=O)N1C` [Compound 1080] the figure was not above 100 nM. With `C[C@@H]1CN[C@@H](C2CC2)C(=O)N(C)[C@H](C)C(=O)N[C@H]([C@H](C)c2ccc(O)cc2)C(=O)NCCCc2ncccc2O1` [Compound 1081], the Ki in data set [1] is more than 500 nM.

For the molecule `C[C@@H]1CN[C@@H](C2CC2)C(=O)N(C)[C@H](C)C(=O)N[C@H]([C@@H](C)c2ccc(O)cc2)C(=O)NCCCc2ncccc2O1` [Compound 1082], the Ki in data set [1] was not above 500 nM. Same read-out and setting: with `C[C@@H]1C(=O)N[C@H](Cc2ccc(O)cc2)C(=O)N[C@@H](C)CCc2ccccc2OCCN[C@@H](C2CC2)C(=O)N1C` [Compound 1083] the figure was not above 100 nM; with `CC(C)C[C@H]1NC(=O)[C@@H](C)N(C)C(=O)[C@H](C2CC2)NCCOc2ccccc2CC[C@H](C)NC1=O` [Compound 1084], not above 100 nM; with `CC(C)C[C@H]1NC(=O)[C@@H](C)N(C)C(=O)[C@H](C2CC2)NCCOc2ccccc2CC[C@@H](C)NC1=O` [Compound 1086], not above 100 nM. On the same count and under the same terms, next, `CC(C)C[C@H]1NC(=O)[C@@H](C)N(C)C(=O)[C@H](C2CC2)NC[C@@H](C)Oc2cccnc2CC[C@H](C)NC1=O` [Compound 1088]: not above 500 nM; `COC(=O)C[C@H]1NC(=O)[C@@H](C)N(C)C(=O)[C@H](C2CC2)NC[C@@H](C)Oc2ccccc2CCCNC1=O` [Compound 1090]: not above 500 nM.

With `CC(C)C[C@H]1NC(=O)[C@@H](C)N(C)C(=O)[C@H](C2CCCCC2)NC[C@@H](C)Oc2ccccc2CCCNC1=O` [Compound 1099], the Ki in data set [1] was not above 1 nM. On to `C[C@@H]1C(=O)N[C@H](Cc2ccc(F)cc2)C(=O)NCCCc2ccc(F)c(F)c2OCCN[C@@H](C2CC2)C(=O)N1C` [Compound 1100], for which, in data set [1], the Ki was not above 10 nM. On the same count and under the same terms, next, `C[C@@H]1CN[C@@H](C2CC2)C(=O)N(C)[C@H](C)C(=O)N[C@H](c2ccc(O)cc2)C(=O)NCCCc2ccccc2O1` [Compound 1103]: more than 500 nM; `C[C@@H]1CN[C@@H](C2CC2)C(=O)N(C)[C@H](C)C(=O)N[C@H](Cc2ccc(O)c(F)c2)C(=O)NCCCc2ccccc2O1` [Compound 1104]: not above 100 nM. Same read-out and setting: with `C[C@@H]1C(=O)N[C@H](Cc2ccc(O)cc2)C(=O)NCCCc2cccc3c2O[C@H](CC3)CN[C@@H](C2CCCCC2)C(=O)N1C` [Compound 1105] the figure was not above 1 nM; with `CC(C)CC1NC(=O)C(C)N(C)C(=O)C(C2CC2)NCCOC2CCCCC2CCCNC1=O` (centres unmarked) [Compound 1106], not above 100 nM; with `CC(C)CC1NC(=O)C(C)N(C)C(=O)C(C2CC2)NCC(C)OC2CCCCC2CCC(C)NC1=O` (centres unmarked) [Compound 1107], not above 100 nM.

With `CC1CNC(C2CCCCC2)C(=O)N(C)C(C)C(=O)NC(Cc2ccc(O)cc2)C(=O)NCCCc2ccccc2O1` (centres unmarked) [Compound 1108], the Ki in data set [1] is not above 1 nM. Take `CC1C(=O)NC(Cc2ccc(F)cc2)C(=O)NCCCc2c(F)cccc2OCCNC(C2CC2)C(=O)N1C` (centres unmarked) [Compound 1109]: in data set [1], the Ki is not above 10 nM.

For the molecule `CC1C(=O)NC(Cc2ccc(O)cc2)C(=O)NCCCc2c(F)cccc2OCCNC(C2CC2)C(=O)N1C` (centres unmarked) [Compound 1110], the Ki in data set [1] was not above 100 nM. In data set [1], `CC(C)CC1NC(=O)C(C)N(C)C(=O)C(C2CC2)NCCOc2cccc(F)c2CCCNC1=O` (centres unmarked) [Compound 1111] returned a Ki not above 100 nM. Same read-out and setting: next, `CC(C)CC1NC(=O)C(C)N(C)C(=O)C(C2CCCCC2)NCCOc2cc(F)ccc2CCCNC1=O` (centres unmarked) [Compound 1112]: not above 1 nM.

Take `CC1C(=O)NC(Cc2ccc(O)cc2)C(=O)NCCCc2ccc(F)cc2OCCNC(C2CCCCC2)C(=O)N1C` (centres unmarked) [Compound 1113]: the Ki in data set [1] was not above 1 nM.

For `CCN(CC)CCNC(=O)c1cc(Cl)c(N)cc1OC` [metoclopramide], the “Percent Increase” value in the data set on fasted rats (dose 30 mg/kg) was 35%.

The values are drawn from patent publication US10258602B2 (Ocera Therapeutics, Inc., priority 2007, dated 2019).
